“Also recorded” adds a separate entry of the source. Like-named read-outs stand apart in the source and are kept apart here. Values belong to the substance of their own block, whether it stands above or below them. Where no end group is shown, it is not given here.
Assays:
in vitro rat heart = settings: cited from earlier work
[1] = system: isolated, retrogradely perfused rat hearts; assay: Global ischemia (35 min)-reperfusion (120 min) in isolated, retrogradely perfused (Langendorff) rat hearts; peptide postconditioning; settings: for Infarct size (% IS/AAR): 15 min at onset of reperfusion; for LVD AUC / LVD-lowering effect in the presence of exendin(9-39): N-Ac-GLP-1(7-34)amide 0.3 nM + exendin(9-39) 3 nM versus control ischemia; for Left ventricle developed pressure (LVDEV) AUC / Rate-pressure product (RPP) AUC / Left ventricle diastolic pressure (LVD) AUC over last 60 min of reperfusion / post-ischemic diastolic contracture: postconditioning 0.3 nM versus control ischemia
Protocol: Global ischemia (35 min)-reperfusion (120 min) was applied in isolated, retrogradely perfused rat hearts. Peptides were present for 15 min at the onset of reperfusion. Cardiac function parameters (beats per minute, left ventricle developed and diastolic pressures, rate-pressure product) throughout the course of the perfusion were measured. Infarct size was determined on collected hearts by 2,3,5-tripehyltetrazolium chloride staining and planimetry.
(§1) For anesthesia, a mixture of midazolam (2.5 mg/kg), fluanisone (2.5 mg/kg) and fentanyl citrate (0.08 mg/kg) was administered subcutaneously. Heparin ([…]. per kg) was administered through the femoral vein. The animals were ventilated via a tracheotomy with a mixture of 35% O2/65% N2 and the chest cavity was opened. The excised heart was immediately placed in an ice-cold Krebs Henseleit buffer. The heart was quickly mounted onto the Langendorff perfusion system (ADInstruments, UK) and perfused with modified Krebs-Henseleit solution (NaCl 118.5 mM, KCl 4.7 mM, NaHCO3 25.0 mM, MgSO4 1.2 mM, CaCl2 1.4 mM, glucose 11.1 mM), equilibrated to pH 7.4 with a gas mixture of 5% CO2/95% 02, at 37° C. The left auricle was removed and a size 7 balloon (ADInstruments) was inserted into the left ventricle through the left atrium and adjusted to a diastolic pressure of 4-10 mmHg. Perfusion pressure was set to 70 mm Hg and maintained at this average value by a servo control system (ML175 STH Pump Controller, ADInstruments) continually adjusting the peristaltic pump revolutions according to flow resistance. The hearts were allowed to stabilize for 20 min prior to recording of left ventricle functional parameter baseline values over the next 10 min: pressure (systolic, LVS; diastolic, LVD; developed, LVDEV=LVS-LVD), beats per minute (BPM) and rate-pressure product (RPP). Power Lab 8/30 system and Chart 5 Pro Software from ADInstruments were used for these recordings.
(§2) Hearts were also excluded if ventricular fibrillation lasting more than 5 min occurred during reperfusion.
FIG. 1 outlines the time course for normoxic (A) and ischemia-reperfusion (B) experiments. The experimental groups were: control normoxia, no peptide addition; normoxia, N—Ac-GLP-1(7-34)amide 0.3 nM; control ischemia-reperfusion (IR), no peptide addition; IR, N—Ac-GLP-1(7-34)amide 0.3 nM; IR, N—Ac-GLP-1(7-34)amide 0.3 nM+exendin(9-39) 3 nM; IR, exendin(9-39) 3 nM. […] “Stab” indicates 30 min stabilization period. When present, peptides were added for 15 min, from the beginning of the last 120 min of perfusion (A) or reperfusion (B). Total perfusion time was always 185 min, consisting of 30 min stabilization, followed by 155 min of normoxic perfusion (FIG. 1A) or 35 min global ischemia-120 min reperfusion (FIG. 1B).
Following reperfusion, the hearts were processed for 2, 3, 5-triphenyltetrazolium chloride staining and planimetric infarct size determination, as described earlier. Quantitation was done by an investigator blinded to the experimental conditions. Infarct size (IS) was expressed as a percentage of total ischemic area at risk (AAR) (% IS/AAR).
All values are presented as means, with SEM given in parantheses. One-way ANOVA with Dunnett's post hoc test (GraphPad Prism® 5) was used to compare treatment results to control conditions. P<0.05 was considered significant.

[2] = system: isolated, retrogradely perfused rat hearts; assay: Normoxic perfusion of isolated rat hearts (no preceding ischemia); settings: 0.3 nM between 35 and 50 min of perfusion
Protocol: as §1, §2
FIG. 1 outlines the time course for normoxic (A) and ischemia-reperfusion (B) experiments. The experimental groups were: control normoxia, no peptide addition; normoxia, N—Ac-GLP-1(7-34)amide 0.3 nM; control ischemia-reperfusion (IR), no peptide addition; IR, N—Ac-GLP-1(7-34)amide 0.3 nM; IR, N—Ac-GLP-1(7-34)amide 0.3 nM+exendin(9-39) 3 nM; IR, exendin(9-39) 3 nM. […] “Stab” indicates 30 min stabilization period. […]

[3] = listed as N—Ac-GLP-1-(7-34)amide
[4] = listed as N—Ac-GLP-1(7-34)-amide

Substance: exendin(9-39) [reference compound]
Effect on infarct-limiting actions of GLP-1 (in vitro rat heart; exendin(9-39) given with GLP-1): abolish
LVD AUC over last 60 min of reperfusion ([1]; exendin(9-39) 3 nM alone versus control ischemia): not affected
Infarct size (% IS/AAR) ([1]; exendin(9-39) 3 nM alone, mean): 21.7%

Infarct size-limiting action in the presence of GLP-1 receptor antagonist exendin(9-39) ([1]; co-administration of exendin(9-39) 3 nM): abolished
Substance: N—Ac-GLP-1(7-34)amide (Ac-HAEGTFTSDVSSYLEGQAAKEFIAWLVK-NH2) [N-terminally acetylated, C-terminally truncated analogue of GLP-1]
Trend towards LVDEV improvement in the presence of exendin(9-39) ([1]; N-Ac-GLP-1(7-34)amide 0.3 nM + exendin(9-39) 3 nM): abolished
LVD AUC / LVD-lowering effect in the presence of exendin(9-39) [1]: blocked
LVD AUC / LVD-lowering effect in the presence of exendin(9-39) [1, 3]: not affected
Infarct size (% IS/AAR) ([1]; N-Ac-GLP-1(7-34)amide 0.3 nM in the presence of exendin(9-39) 3 nM, mean): 21.4%
Infarct size (IS) as percentage of area at risk (% IS/AAR) ([1]; peptide 0.3 nM for 15 min at onset of reperfusion, mean, control ischemia-reperfusion without peptide 24.8% / 28.4%): 11.4%
Left ventricle developed pressure (LVDEV) AUC [1]: did not affect
Rate-pressure product (RPP) AUC [1]: did not affect
Left ventricle diastolic pressure (LVD) AUC over last 60 min of reperfusion / post-ischemic diastolic contracture ([1]; P<0.05): diminished diastolic hypercontracture; also recorded: significant decrease
Left ventricle diastolic pressure (LVD) AUC over last 60 min of reperfusion / post-ischemic diastolic contracture ([1]; P<0.05, listed as N—Ac-GLP-1(7-34)-amide): diminished significantly
Left ventricle diastolic pressure (LVD) AUC over last 60 min of reperfusion / post-ischemic diastolic contracture ([1]; P<0.05, listed as N—Ac-GLP-1-(7-34)amide): significantly decreased
Relative decrease in infarct size ([1]; postconditioning 0.3 nM versus control ischemia-reperfusion): approximately 54%
Left ventricle developed pressure (LVDEV) AUC [1, 4]: no significant effect
Rate-pressure product (RPP) AUC [1, 4]: no significant effect
Left ventricle developed pressure (LVDEV) AUC [1, 3]: did not increase
Rate-pressure product (RPP) AUC [1, 3]: did not increase
Effect on infarct size (in words) ([1]; postconditioning 0.3 nM versus no peptide, P<0.05): diminished infarct size; also recorded: significant decrease
Functional heart parameters (BPM, LVDEV, LVD, RPP) under normoxic perfusion [2]: not affected
Functional heart parameters (BPM, LVDEV, LVD, RPP) under normoxic perfusion [2, 4]: nor did it affect
Functional heart parameters (BPM, LVDEV, LVD, RPP) under normoxic perfusion [2, 3]: No effect

Substance: GLP-1 (HAEGTFTSDVSSYLEGQAAKEFIAWLVKGR; ends and bridges not checked; UniProt P01275 98-127, looked up) [natural hormone GLP-1]
Effect on myocardial infarction (in vitro rat heart; GLP-1 alone): did not decrease
Effect on myocardial infarction (in vitro rat heart; GLP-1 in combination with the GLP-1 breakdown inhibitor valine pyrrolidide (VP)): significant reduction

From patent publication US20160207970A1, “POLYPEPTIDE FOR THE PROTECTION AGAINST HEART ISCHEMIA-REPERFUSION INJURY” (Pharis Biotech GmbH, priority 2011, published 2016)
